# Measured values published in patent US10191057B2, “Methods of diagnosing, classifying and treating endometrial cancer and precancer” (THE TRANSLATIONAL GENOMICS RESEARCH INSTITUTE, priority 2007, dated 2019).
# Experiments:
# AN3CA cells [1] = experiment: Annexin V-FITC labeling of apoptotic cells, AN3CA; assay type: cell-based, human
# Experimental: (§1) Cells were plated at a density of 4×10^5 cells per well in a 6 well plate. The next day, cells were infected with lentiviral stocks in the presence of 6 μg/ml polybrene (Sigma-Aldrich, St. Louis, Mo.). Empty vector and nonsilencing shRNA infections were used as controls for each experiment. […] Growth Inhibition Assay Twenty-four hours after infection, cells were trypsinized and plated in 96 well plates in full growth medium at a density of 5,000 cells per well, in triplicate, and proliferation assessed using the Sulforhodamine B (SRB) assay (Sigma-Aldrich, St. Louis, Mo.). […] The protein-bound dye was dissolved in 10 mM Tris base solution, and absorbance measured at 510 nm. […] 48 hours after transfection, floating and attached cells were collected, washed in cold PBS, resuspended in Annexin binding buffer (10 mM Hepes (pH 7.4), 140 mM NaCl, 2.5 mM CaCl2), stained with 500 ng/mL annexinV-FITC and 1 μg/mL propidium iodide (Sigma-Aldrich, St. Louis, Mo.), and analyzed for annexin positive cells using a CyAn ADP flow cytometer and Summit software, version 4.3 (Dako Cytomation, Carpinteria, Calif.). […] 72 hours later, cells were stained with propidium iodide as described {Krishan, 1975 #28} and analyzed by flow cytometry. […] FGFR2 expression was detected with BekC17 antibody (Santa Cruz Biotechnology, Inc., Santa Cruz, Calif.). […]
# PLCγ = experiment: Western blot, activation of PLCγ; assay type: cell-based, human; conditions: following PD173074 treatment, data not shown
# Experimental: as §1
# AKT = experiment: Western blot, activation of AKT; assay type: cell-based, human; conditions: for AKT activation: HEC1A
# Experimental: (§2) Cells were plated at a density of 4×10^5 cells per well in a 6 well plate. The next day, cells were infected with lentiviral stocks in the presence of 6 μg/ml polybrene (Sigma-Aldrich, St. Louis, Mo.). Empty vector and nonsilencing shRNA infections were used as controls for each experiment. […] Growth Inhibition Assay Twenty-four hours after infection, cells were trypsinized and plated in 96 well plates in full growth medium at a density of 5,000 cells per well, in triplicate, and proliferation assessed using the Sulforhodamine B (SRB) assay (Sigma-Aldrich, St. Louis, Mo.). At the indicated time points, wells were fixed with 10% (wt/vol) trichloroacetic acid, stained with SRB for 30 min, and washed with 1% (vol/vol) acetic acid. The protein-bound dye was dissolved in 10 mM Tris base solution, and absorbance measured at 510 nm. […] Annexin V-FITC Labeling of Apoptotic Cells Annexin V-FITC staining was used to measure phosphatidylserine exposure on cells undergoing apoptosis, according to the manufacturer's instructions (BioVision, Inc. Mountain View, Calif.). […] 2.5×10^5 cells were plated per well in a 6 well plate. Twenty-four hours later, cells were transfected with 25 nM nonsilencing (NS) siRNA or FGFR2 siRNA X2 using Lipofectamine 2000 transfection reagent. The siRNA duplex was allowed to form a complex with Lipofectamine 2000 for 20 minutes at room temperature, and transfection carried out at 37° C. for 24 hours. 48 hours after transfection, floating and attached cells were collected, washed in cold PBS, resuspended in Annexin binding buffer (10 mM Hepes (pH 7.4), 140 mM NaCl, 2.5 mM CaCl2), stained with 500 ng/mL annexinV-FITC and 1 μg/mL propidium iodide (Sigma-Aldrich, St. Louis, Mo.), and analyzed for annexin positive cells using a CyAn ADP flow cytometer and Summit software, version 4.3 (Dako Cytomation, Carpinteria, Calif.). […] Cell Cycle Analysis Cells were plated at a density of 1×10^5 cells per well in a 6 well plate. […] 72 hours later, cells were stained with propidium iodide as described {Krishan, 1975 #28} and analyzed by flow cytometry. Cell cycle analysis was performed using ModFit software (Verity Software House, Inc. Topsham, Me.). Western Blot Analysis Cells were plated in 60 mm^2 dishes at a density of 2×10^6 cells per dish. […] Cells were washed in ice cold PBS, lysed in kinase buffer [20 mM Hepes pH7.4, 2 mM EGTA, 1% Triton X100, 10% glycerol, 1 mM Na3VO4, 1 mM NaF, 100 uM AEBSF, and 1 tablet/10 mL of Mini Complete Protease Inhibitor (Roche Molecular Biochemicals, Indianapolis, Ind.)], briefly sonicated on ice, and protein concentrations estimated using Quick Start Bradford Reagent with bovine gamma-globulin standards (Bio-Rad Laboratories, Hercules, Calif.). Equal amounts of protein were separated by SDS-PAGE on 4-12% gradient gels and transferred to polyvinylidene difluoride membranes (Invitrogen, Carlsbad, Calif.). Membranes were immunoblotted with antibodies to phosphorylated and total AKT, ERK1/2, p38, STAT-3 and STAT-5, PLCγ and total PTEN (Cell Signaling Technology, Beverly, Mass.). FGFR2 expression was detected with BekC17 antibody (Santa Cruz Biotechnology, Inc., Santa Cruz, Calif.). Horseradish peroxidase-conjugated goat anti-mouse or anti-rabbit secondary antibodies (Biomeda, Foster City, Calif.), were used, followed by chemiluminescence staining. For shRNA studies, lysates were collected 48 hours after shRNA transduction and processed as described above. Statistical Analysis
# [2] = system: AN3CA (FGFR2 N550K mutant) xenograft tumors; experiment: AN3CA xenograft tumor growth; conditions: 25 mg/kg twice daily by oral gavage
# Experimental: (§3) Briefly, mice were inoculated subcutaneously with 0.1 ml of a 50% RPMI/50% Matrigel™ mixture containing a suspension of tumor cells (1×10^7 cells/mouse). […] Tumor weight measurements were recorded three times a week.
# MFE296 cells [3] = experiment: Annexin V-FITC labeling of apoptotic cells, MFE296; assay type: cell-based, human; conditions: MFE296, data not shown
# Experimental: as §1
# p38 = experiment: Western blot, activation of p38; assay type: cell-based, human; conditions: 10% FBS
# Experimental: as §2
# [4] = system: KLE cells (wildtype FGFR2); experiment: SRB cell viability assay, KLE; assay type: cell-based; conditions: Homo sapiens, read-out: PD173074 IC50, cell viability, SRB assay 72 hours after addition, full growth medium
# ERK1/2 = experiment: Western blot, activation of ERK1/2; assay type: cell-based, human
# Experimental: as §2
# STAT3 = experiment: Western blot, activation of STAT3; assay type: cell-based, human; conditions: 10% FBS
# Experimental: as §2
# [5] = system: AN3CA cells (N550K FGFR2 mutation); experiment: SRB cell proliferation/viability assay, AN3CA; assay type: cell-based; conditions: Homo sapiens, AN3-CA, read-out: PD173074 IC50, cell viability, SRB assay 72 hours after addition, full growth medium
# [6] = system: HEC1A cells (wildtype FGFR2); experiment: SRB cell viability assay, HEC1A; assay type: cell-based; conditions: Homo sapiens, HEC-1-A, read-out: PD173074 IC50, cell viability, SRB assay 72 hours after addition, full growth medium
# Experimental: as §1
# VEGFR2 = VEGFR2 (Homo sapiens, UniProt P35968); conditions: cited from earlier work
# VEGFR2, sequence (P35968 20-1356, species assumed): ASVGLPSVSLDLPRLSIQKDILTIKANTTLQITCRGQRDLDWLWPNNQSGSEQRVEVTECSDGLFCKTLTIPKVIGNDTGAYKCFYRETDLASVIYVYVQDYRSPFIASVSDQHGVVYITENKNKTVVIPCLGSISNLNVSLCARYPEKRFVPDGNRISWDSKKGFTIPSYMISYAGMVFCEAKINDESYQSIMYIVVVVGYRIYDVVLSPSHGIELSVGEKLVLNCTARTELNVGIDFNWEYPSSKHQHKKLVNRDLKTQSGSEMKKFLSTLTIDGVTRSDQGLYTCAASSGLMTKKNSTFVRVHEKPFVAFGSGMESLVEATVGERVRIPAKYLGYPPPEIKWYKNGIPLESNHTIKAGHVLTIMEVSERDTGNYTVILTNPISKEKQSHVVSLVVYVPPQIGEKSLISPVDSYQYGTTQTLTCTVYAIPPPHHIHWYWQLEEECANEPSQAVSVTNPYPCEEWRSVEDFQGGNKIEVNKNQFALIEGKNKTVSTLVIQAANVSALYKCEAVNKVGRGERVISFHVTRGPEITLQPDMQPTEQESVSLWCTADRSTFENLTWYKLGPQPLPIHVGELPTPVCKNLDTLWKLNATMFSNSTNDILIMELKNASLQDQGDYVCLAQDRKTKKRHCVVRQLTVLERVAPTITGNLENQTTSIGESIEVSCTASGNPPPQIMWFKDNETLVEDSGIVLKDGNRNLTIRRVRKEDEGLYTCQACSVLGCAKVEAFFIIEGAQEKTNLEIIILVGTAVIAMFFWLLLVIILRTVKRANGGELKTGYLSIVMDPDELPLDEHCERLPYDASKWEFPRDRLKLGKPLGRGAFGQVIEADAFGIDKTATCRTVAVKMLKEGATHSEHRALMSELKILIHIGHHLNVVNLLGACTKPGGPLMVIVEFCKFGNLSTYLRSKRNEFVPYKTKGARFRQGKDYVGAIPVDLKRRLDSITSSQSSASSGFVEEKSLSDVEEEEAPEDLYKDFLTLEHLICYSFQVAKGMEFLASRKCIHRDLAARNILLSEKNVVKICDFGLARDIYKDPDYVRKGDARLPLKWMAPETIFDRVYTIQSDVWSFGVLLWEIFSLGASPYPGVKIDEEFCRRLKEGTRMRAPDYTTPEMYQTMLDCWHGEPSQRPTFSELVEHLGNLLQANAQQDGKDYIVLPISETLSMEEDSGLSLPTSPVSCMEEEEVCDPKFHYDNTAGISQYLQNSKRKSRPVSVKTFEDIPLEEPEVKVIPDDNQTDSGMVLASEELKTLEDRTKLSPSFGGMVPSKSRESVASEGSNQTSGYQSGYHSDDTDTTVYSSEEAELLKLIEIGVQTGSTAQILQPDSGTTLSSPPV
# [7] = system: RL952 cells (wildtype FGFR2); experiment: SRB cell viability assay, RL952; assay type: cell-based; conditions: Homo sapiens, RL95-2, read-out: PD173074 IC50, cell viability; RL952, SRB assay 72 hours after addition, full growth medium
# Experimental: as §1
# [8] = system: myeloma cells with an activating t(4; 14) translocation and activating mutations in FGFR3; conditions: t(4; 14) translocation and activating FGFR3 mutations; cited from earlier work
# MFE296 cells [9] = experiment: Cell cycle analysis, MFE296; assay type: cell-based, human; conditions: MFE296, data not shown
# Experimental: as §1
# [10] = system: MFE296 cells (N550K FGFR2 mutation); experiment: SRB cell proliferation/viability assay, MFE296; assay type: cell-based; conditions: Homo sapiens, MFE-296, read-out: PD173074 IC50, cell viability; MFE296, SRB assay 72 hours after addition, full growth medium
# Experimental: as §1
# [11] = system: Ishikawa cells (wildtype FGFR2); experiment: SRB cell viability assay, Ishikawa; assay type: cell-based; conditions: Homo sapiens, read-out: PD173074 IC50, cell viability, SRB assay 72 hours after addition, full growth medium
# Experimental: as §1
# [12] = system: Hec1A (FGFR2 wild type) xenograft tumors; experiment: Hec1A xenograft tumor growth; conditions: 25 mg/kg twice daily by oral gavage
# Experimental: as §3
# AN3CA cells [13] = experiment: Cell cycle analysis (propidium iodide, flow cytometry), AN3CA; assay type: cell-based, human; conditions: 1 μM, 72 hrs
# Experimental: as §1
# [14] = AN3CA, 1 μM, 0 to 72 hours, 0.2% FBS
# [15] = AN3CA, 1 μM, 0 to 72 hours, 10% FBS
# [16] = AN3CA, increasing concentrations, 3 hours, 10% FBS
# [17] = MFE296, 1 μM, 0 to 72 hours, 0.2% FBS
# [18] = MFE296, 1 μM, 0 to 72 hours, 10% FBS
# [19] = MFE296, increasing concentrations, 3 hours, 10% FBS
# [20] = AN3CA, increasing concentrations, 3 hours
# [21] = HEC1A, increasing concentrations, 3 hours
# [22] = MFE296, increasing concentrations, 3 hours
smiles,measurement,setting,value
CCN(CC)CCCCNc1ncc2cc(-c3cc(OC)cc(OC)c3)c(NC(=O)NC(C)(C)C)nc2n1 [PD173074],Annexin-V staining compared to DMSO,"AN3CA cells [1]; 1 μM, 48, 72 or 96 hours",increase in Annexin-V staining
same,cells undergoing apoptosis (Annexin V-FITC labeling),"AN3CA cells [1]; 1 μM, 96 hours after drug treatment",~70%
same,PLCγ activation,PLCγ,no change
same,AKT phosphorylation,AKT; [14],modest suppression of AKT phosphorylation
same,AKT phosphorylation,AKT; [15],partial suppression of AKT phosphorylation
same,AKT phosphorylation,AKT; [16],modest suppression of AKT phosphorylation
same,AKT activation,"AKT; 1 μM, 0 to 72 hours, 0.2% FBS",no effect
same,AKT activation,"AKT; 1 μM, 0 to 72 hours, 10% FBS",no effect
same,AKT activation,"AKT; increasing concentrations, 3 hours, 10% FBS",no effect
same,AKT phosphorylation,AKT; [17],modest suppression of AKT phosphorylation
same,AKT phosphorylation,AKT; [18],partial suppression of AKT phosphorylation
same,AKT phosphorylation,AKT; [19],modest suppression of AKT phosphorylation
same,growth of xenograft tumors,[2],suppressed growth of all eight
same,tumors with tumor regression,[2],six of the eight
same,mean tumor shrinkage,[2]; regressing tumors,51%
same,Annexin V staining,MFE296 cells [3],did not result in enhanced Annexin V staining
same,p38 activation,"p38; AN3CA, 1 μM, 0 to 72 hours",no effect
same,p38 activation,p38; [20],no effect
same,p38 activation,"p38; HEC1A, 1 μM, 0 to 72 hours",no effect
same,p38 activation,p38; [21],no effect
same,p38 activation,"p38; MFE296, 1 μM, 0 to 72 hours",no effect
same,p38 activation,p38; [22],no effect
same,IC50,[4],> 1000 nM
same,ERK1/2 activation,ERK1/2; [14],suppression of ERK1/2 activation
same,ERK1/2 activation,ERK1/2; [15],suppression of ERK1/2 activation
same,ERK1/2 activation,ERK1/2; [16],suppression of ERK1/2 activation
same,ERK1/2 activation,"ERK1/2; HEC1A, 1 μM, 0 to 72 hours, 0.2% FBS",no effect
same,ERK1/2 activation,"ERK1/2; HEC1A, 1 μM, 0 to 72 hours, 10% FBS",no effect
same,ERK1/2 activation,"ERK1/2; HEC1A, increasing concentrations, 3 hours, 10% FBS",no effect
same,ERK1/2 activation,ERK1/2; [17],suppression of ERK1/2 activation
same,ERK1/2 activation,ERK1/2; [18],suppression of ERK1/2 activation
same,ERK1/2 activation,ERK1/2; [19],suppression of ERK1/2 activation
same,STAT3 activation,"STAT3; AN3CA, 1 μM, 0 to 72 hours",no effect
same,STAT3 activation,STAT3; [20],no effect
same,STAT3/5 activation,"STAT3; HEC1A, 1 μM, 0 to 72 hours",no effect
same,STAT3 activation,STAT3; [21],no effect
same,STAT3 activation,"STAT3; MFE296, 1 μM, 0 to 72 hours",no effect
same,STAT3 activation,STAT3; [22],no effect
same,IC50,[5],61.7 nM
same,IC50,[6],> 3000 nM
same,IC50,VEGFR2,~100 nM
same,IC50,[7],> 1000 nM
same,apoptosis in myeloma cells,[8],induce apoptosis
same,cell cycle effect,MFE296 cells [9],induced cell cycle arrest
same,IC50,[10],284 nM
same,IC50,[11],2920 nM
same,effect on xenograft tumors,[12],minimal effect
same,cell cycle effect,AN3CA cells [13],G1 cell cycle arrest
